Reference: paper PMC11241008, “Response Plasticity of Drosophila Olfactory Sensory Neurons” (International Journal of Molecular Sciences, 2024)

Columns and labels:
Or56a = target: T1, Or56a (Drosophila melanogaster, UniProt Q9V8Y7); test: GCaMP6f calcium imaging of native OSN somata, open antenna; settings: agonist; Drosophila Ringer pH 7.3; Hill coefficient 0.6; concentration as applied; n = 9
T1 construct: native receptor in ab4B olfactory sensory neurons of excised open antenna, with endogenous Orco; GCaMP6f calcium reporter; no heterologous expression; with Odorant receptor coreceptor
T1 sequence (Q9V8Y7 1-419): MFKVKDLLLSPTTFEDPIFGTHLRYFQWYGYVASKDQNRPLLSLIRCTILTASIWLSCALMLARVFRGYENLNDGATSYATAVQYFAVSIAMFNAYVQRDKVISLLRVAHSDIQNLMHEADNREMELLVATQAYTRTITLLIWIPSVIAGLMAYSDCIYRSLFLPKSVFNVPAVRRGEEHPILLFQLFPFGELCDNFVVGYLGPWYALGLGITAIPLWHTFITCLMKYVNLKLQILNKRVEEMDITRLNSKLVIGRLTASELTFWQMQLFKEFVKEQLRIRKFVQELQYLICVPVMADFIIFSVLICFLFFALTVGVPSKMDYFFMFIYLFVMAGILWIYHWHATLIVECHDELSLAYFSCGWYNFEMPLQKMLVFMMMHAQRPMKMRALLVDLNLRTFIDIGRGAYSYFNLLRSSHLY
T1 sequence (Q9VNB5 1-486 partner): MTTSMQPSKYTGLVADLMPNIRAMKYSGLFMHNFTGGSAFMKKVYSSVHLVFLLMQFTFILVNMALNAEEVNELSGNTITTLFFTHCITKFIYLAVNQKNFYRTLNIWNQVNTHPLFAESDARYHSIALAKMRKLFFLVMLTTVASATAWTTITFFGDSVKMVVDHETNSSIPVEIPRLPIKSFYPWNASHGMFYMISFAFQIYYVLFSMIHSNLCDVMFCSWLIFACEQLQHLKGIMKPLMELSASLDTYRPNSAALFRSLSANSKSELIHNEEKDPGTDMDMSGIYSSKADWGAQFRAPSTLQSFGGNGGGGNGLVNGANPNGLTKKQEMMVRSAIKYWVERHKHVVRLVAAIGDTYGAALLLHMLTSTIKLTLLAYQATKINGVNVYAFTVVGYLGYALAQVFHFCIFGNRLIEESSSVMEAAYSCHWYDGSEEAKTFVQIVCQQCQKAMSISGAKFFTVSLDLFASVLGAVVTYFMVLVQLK

Or22a = target: T2, Or22a (Drosophila melanogaster, UniProt P81909); test: as above; settings: agonist; Drosophila Ringer pH 7.3; Hill coefficient 0.8; concentration as applied; n = 12
T2 construct: native receptor in ab3A olfactory sensory neurons of excised open antenna, with endogenous Orco; GCaMP6f calcium reporter; no heterologous expression; with Odorant receptor coreceptor
T2 sequence (P81909 1-397): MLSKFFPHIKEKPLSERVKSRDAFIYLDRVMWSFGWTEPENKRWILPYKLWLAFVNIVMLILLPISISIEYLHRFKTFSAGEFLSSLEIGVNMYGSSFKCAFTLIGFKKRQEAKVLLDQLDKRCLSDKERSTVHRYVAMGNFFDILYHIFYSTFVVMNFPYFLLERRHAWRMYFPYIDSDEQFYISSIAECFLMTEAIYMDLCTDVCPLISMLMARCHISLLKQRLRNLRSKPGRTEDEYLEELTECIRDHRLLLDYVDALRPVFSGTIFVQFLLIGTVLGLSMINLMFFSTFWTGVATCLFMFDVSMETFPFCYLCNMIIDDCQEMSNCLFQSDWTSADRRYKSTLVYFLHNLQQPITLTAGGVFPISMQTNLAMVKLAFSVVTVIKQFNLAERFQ
T2 sequence (Q9VNB5 1-486 partner): T1 sequence (Q9VNB5 1-486 partner)

## CC1CCCC2(C)CCCCC12O (racemic) [geosmin]
Or56a
  EC50: 25 nM

## CCCCCC(=O)OCC [ethyl hexanoate]
Or22a
  EC50: 1500 nM
